Patent US7767659B2, “Synthesis of naturally occurring ecteinascidins and related compounds” (Pharma Mar, S.A., priority 2002, dated 2010)

Columns and labels:
HT-29 = assay: cells; conditions: Homo sapiens, HT-29, 48 h; for GI50: read-out: HT29 GI50; for CC50: read-out: HT29 LC50; for IC (TGI): read-out: HT29 TGI
How it was run: (§1)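 Colorimetric SRB read (490 nm) on triplicate wells after 48 h at 37 °C, 5% CO2. Dose range 10 to 10^−8 μg/ml; 5×10^3 cells/well pre-attached 18 h.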

LoVo = assay: cells; conditions: Homo sapiens, LoVo, 48 h; for GI50: read-out: LOVO GI50; for CC50: read-out: LOVO LC50; for IC (TGI): read-out: LOVO TGI
How it was run: as §1

A-549 = assay: cells; conditions: Homo sapiens, A549, 48 h; for GI50: read-out: A549 GI50; for CC50: read-out: A549 LC50; for IC (TGI): read-out: A549 TGI
How it was run: as §1

IGROV-1 = assay: Inhibition of cells growth by colorimetric assay (SRB); conditions: Homo sapiens, IGROV-1, 48 h; for GI50: read-out: IGROV GI50; for CC50: read-out: IGROV LC50; for IC (TGI): read-out: IGROV TGI
How it was run: as §1

LoVo-Dox = assay: as above; conditions: Homo sapiens, 48 h; for GI50: read-out: LOVO-DOX GI50; for CC50: read-out: LOVO-DOX LC50; for IC (TGI): read-out: LOVO-DOX TGI
How it was run: as §1

DU-145 = assay: as above; conditions: Homo sapiens, DU-145, 48 h; for GI50: read-out: DU145 GI50; for CC50: read-out: DU145 LC50; for IC (TGI): read-out: DU145 TGI
How it was run: as §1

PANC-1 = assay: as above; conditions: Homo sapiens, PANC-1, 48 h; for GI50: read-out: PANC-1 GI50; for CC50: read-out: PANC-1 LC50; for IC (TGI): read-out: PANC-1 TGI
How it was run: as §1

HeLa-APL = assay: as above; conditions: Homo sapiens, 48 h; for GI50: read-out: HELA-APL GI50; for CC50: read-out: HELA-APL LC50; for IC (TGI): read-out: HELA-APL TGI
How it was run: as §1

HeLa = assay: as above; conditions: Homo sapiens, HeLa, 48 h; for GI50: read-out: HELA GI50; for CC50: read-out: HELA LC50; for IC (TGI): read-out: HELA TGI
How it was run: as §1

SK-BR-3 = assay: as above; conditions: Homo sapiens, SK-BR-3, 48 h; for GI50: read-out: SK-BR3 GI50; for CC50: read-out: SK-BR3 LC50; for IC (TGI): read-out: SK-BR3 TGI
How it was run: as §1

LNCaP = assay: as above; conditions: Homo sapiens, LNCaP, 48 h; for GI50: read-out: LNCAP GI50; for CC50: read-out: LNCAP LC50; for IC (TGI): read-out: LNCAP TGI
How it was run: as §1

K-562 = assay: as above; conditions: Homo sapiens, K562, 48 h; for GI50: read-out: K562 GI50; for CC50: read-out: K562 LC50; for IC (TGI): read-out: K562 TGI
How it was run: as §1

IGROV-ET = assay: as above; conditions: Homo sapiens, 48 h; for GI50: read-out: IGROV-ET GI50; for CC50: read-out: IGROV-ET LC50; for IC (TGI): read-out: IGROV-ET TGI
How it was run: as §1

SK-MEL-28 = assay: as above; conditions: Homo sapiens, SK-MEL-28, 48 h; for GI50: read-out: MEL-28 GI50; for CC50: read-out: MEL-28 LC50; for IC (TGI): read-out: MEL-28 TGI
How it was run: as §1

C=CCN1[C@@H]2c3c(cc(C)c(OC)c3O)C[C@H]1[C@H](C#N)N1C2[C@@H]2SC[C@]3(NCCc4c3[nH]c3ccc(O)cc43)C(=O)OC[C@H]1c1c3c(c(C)c(OC(C)=O)c12)OCO3 (stereo partly drawn) [compound 57] was tested. Which GI50 (HT-29) did it give?
Its GI50 is 44.6 nM.

And the CC50 (HT-29)?
The CC50 was 12200 nM.

What about the IC (TGI) (HT-29) of the same compound?
Its IC (TGI) is 4380 nM.

And the GI50 (LoVo)?
Its GI50 is 85.9 nM.

And the CC50 (LoVo)?
Its CC50 is 877 nM.

And the IC (TGI) (LoVo)?
Its IC (TGI) is 274 nM.

What about the GI50 (A-549) of the same compound?
The GI50 was 37.4 nM.

What about the CC50 (A-549) of the same compound?
The CC50 was 1500 nM.

What about the IC (TGI) (A-549) of the same compound?
Its IC (TGI) is 101 nM.

What about the GI50 (IGROV-1) of the same compound?
Its GI50 is 28.8 nM.

And the CC50 (IGROV-1)?
The CC50 was 6480 nM.

What about the IC (TGI) (IGROV-1) of the same compound?
Its IC (TGI) is 66 nM.

And the GI50 (LoVo-Dox)?
The GI50 was 774 nM.

And the CC50 (LoVo-Dox)?
Its CC50 is 12200 nM.

And the IC (TGI) (LoVo-Dox)?
The IC (TGI) was 6220 nM.

And the GI50 (DU-145)?
The GI50 was 52.1 nM.

What about the CC50 (DU-145) of the same compound?
Its CC50 is 12200 nM.

What about the IC (TGI) (DU-145) of the same compound?
Its IC (TGI) is 12200 nM.

What about the GI50 (PANC-1) of the same compound?
The GI50 was 52.9 nM.

What about the CC50 (PANC-1) of the same compound?
Its CC50 is 12200 nM.

What about the IC (TGI) (PANC-1) of the same compound?
Its IC (TGI) is 1340 nM.

What about the GI50 (HeLa-APL) of the same compound?
The GI50 was 22.3 nM.

What about the CC50 (HeLa-APL) of the same compound?
Its CC50 is 115 nM.

What about the IC (TGI) (HeLa-APL) of the same compound?
Its IC (TGI) is 50.5 nM.

And the GI50 (HeLa)?
The GI50 was 26.8 nM.

What about the CC50 (HeLa) of the same compound?
The CC50 was 112 nM.

What about the IC (TGI) (HeLa) of the same compound?
Its IC (TGI) is 56.4 nM.

And the GI50 (SK-BR-3)?
The GI50 was 6.42 nM.

What about the CC50 (SK-BR-3) of the same compound?
Its CC50 is 382 nM.

What about the IC (TGI) (SK-BR-3) of the same compound?
Its IC (TGI) is 31.8 nM.

What about the GI50 (LNCaP) of the same compound?
Its GI50 is 15.1 nM.

And the CC50 (LNCaP)?
Its CC50 is 69.3 nM.

What about the IC (TGI) (LNCaP) of the same compound?
Its IC (TGI) is 32.3 nM.

What about the GI50 (K-562) of the same compound?
Its GI50 is 8.82 nM.

What about the CC50 (K-562) of the same compound?
Its CC50 is 12200 nM.

What about the IC (TGI) (K-562) of the same compound?
The IC (TGI) was 88.8 nM.

What about the GI50 (IGROV-ET) of the same compound?
Its GI50 is 252 nM.

What about the CC50 (IGROV-ET) of the same compound?
Its CC50 is 1170 nM.

What about the IC (TGI) (IGROV-ET) of the same compound?
The IC (TGI) was 544 nM.

What about the GI50 (SK-MEL-28) of the same compound?
Its GI50 is 29.3 nM.

What about the CC50 (SK-MEL-28) of the same compound?
Its CC50 is 106 nM.

And the IC (TGI) (SK-MEL-28)?
The IC (TGI) was 55.6 nM.

With C=CCN1[C@@H]2c3c(cc(C)c(OC)c3O)C[C@H]1[C@H](C#N)N1C2[C@@H]2SC[C@]3(NCCc4c3[nH]c3ccc(C)cc43)C(=O)OC[C@H]1c1c3c(c(C)c(OC(C)=O)c12)OCO3 (stereo partly drawn) [compound 58] as the compound, how does the GI50 (HT-29) read?
The GI50 was 297 nM.

What about the CC50 (HT-29) of the same compound?
The CC50 was 12400 nM.

And the IC (TGI) (HT-29)?
Its IC (TGI) is 1540 nM.

What about the GI50 (LoVo) of the same compound?
The GI50 was 139 nM.

What about the CC50 (LoVo) of the same compound?
Its CC50 is 581 nM.

And the IC (TGI) (LoVo)?
The IC (TGI) was 285 nM.

And the GI50 (A-549)?
Its GI50 is 216 nM.

What about the CC50 (A-549) of the same compound?
Its CC50 is 1240 nM.

And the IC (TGI) (A-549)?
Its IC (TGI) is 517 nM.

What about the GI50 (IGROV-1) of the same compound?
The GI50 was 93.9 nM.

And the CC50 (IGROV-1)?
Its CC50 is 1040 nM.

What about the IC (TGI) (IGROV-1) of the same compound?
The IC (TGI) was 305 nM.

What about the GI50 (LoVo-Dox) of the same compound?
Its GI50 is 483 nM.

What about the CC50 (LoVo-Dox) of the same compound?
Its CC50 is 12400 nM.

And the IC (TGI) (LoVo-Dox)?
The IC (TGI) was 2260 nM.

And the GI50 (DU-145)?
The GI50 was 46.8 nM.

What about the CC50 (DU-145) of the same compound?
The CC50 was 12400 nM.

And the IC (TGI) (DU-145)?
The IC (TGI) was 88.8 nM.

What about the GI50 (PANC-1) of the same compound?
The GI50 was 379 nM.

And the CC50 (PANC-1)?
The CC50 was 12400 nM.

What about the IC (TGI) (PANC-1) of the same compound?
The IC (TGI) was 1270 nM.

What about the GI50 (HeLa-APL) of the same compound?
Its GI50 is 61 nM.

And the CC50 (HeLa-APL)?
Its CC50 is 1160 nM.

What about the IC (TGI) (HeLa-APL) of the same compound?
The IC (TGI) was 190 nM.

What about the GI50 (HeLa) of the same compound?
Its GI50 is 39.4 nM.

And the CC50 (HeLa)?
Its CC50 is 165 nM.

And the IC (TGI) (HeLa)?
The IC (TGI) was 70.8 nM.

What about the GI50 (SK-BR-3) of the same compound?
Its GI50 is 20.9 nM.

What about the CC50 (SK-BR-3) of the same compound?
The CC50 was 2550 nM.

And the IC (TGI) (SK-BR-3)?
Its IC (TGI) is 75 nM.

What about the GI50 (LNCaP) of the same compound?
The GI50 was 29.9 nM.

What about the CC50 (LNCaP) of the same compound?
The CC50 was 240 nM.

And the IC (TGI) (LNCaP)?
Its IC (TGI) is 71.6 nM.

And the GI50 (K-562)?
Its GI50 is 26.4 nM.

And the CC50 (K-562)?
Its CC50 is 12400 nM.

And the IC (TGI) (K-562)?
The IC (TGI) was 94.2 nM.

And the GI50 (IGROV-ET)?
The GI50 was 188 nM.

What about the CC50 (IGROV-ET) of the same compound?
Its CC50 is 949 nM.

What about the IC (TGI) (IGROV-ET) of the same compound?
Its IC (TGI) is 422 nM.

What about the GI50 (SK-MEL-28) of the same compound?
Its GI50 is 241 nM.

And the CC50 (SK-MEL-28)?
The CC50 was 969 nM.

What about the IC (TGI) (SK-MEL-28) of the same compound?
Its IC (TGI) is 469 nM.
